Test results from ChEMBL document CHEMBL1152764, “Penicilliols A and B, novel inhibitors specific to mammalian Y-family DNA polymerases” (Bioorg Med Chem, 2009).
Active and inactive are the calls of the source. The calls are words filed in the database; no cut-off is given here.

Columns and labels:
[1] = biological target: T1, DNA polymerase kappa (Homo sapiens) (UniProt Q9UBT6); assay: Inhibition of human DNA polymerase kappa
T1 sequence (whole entry): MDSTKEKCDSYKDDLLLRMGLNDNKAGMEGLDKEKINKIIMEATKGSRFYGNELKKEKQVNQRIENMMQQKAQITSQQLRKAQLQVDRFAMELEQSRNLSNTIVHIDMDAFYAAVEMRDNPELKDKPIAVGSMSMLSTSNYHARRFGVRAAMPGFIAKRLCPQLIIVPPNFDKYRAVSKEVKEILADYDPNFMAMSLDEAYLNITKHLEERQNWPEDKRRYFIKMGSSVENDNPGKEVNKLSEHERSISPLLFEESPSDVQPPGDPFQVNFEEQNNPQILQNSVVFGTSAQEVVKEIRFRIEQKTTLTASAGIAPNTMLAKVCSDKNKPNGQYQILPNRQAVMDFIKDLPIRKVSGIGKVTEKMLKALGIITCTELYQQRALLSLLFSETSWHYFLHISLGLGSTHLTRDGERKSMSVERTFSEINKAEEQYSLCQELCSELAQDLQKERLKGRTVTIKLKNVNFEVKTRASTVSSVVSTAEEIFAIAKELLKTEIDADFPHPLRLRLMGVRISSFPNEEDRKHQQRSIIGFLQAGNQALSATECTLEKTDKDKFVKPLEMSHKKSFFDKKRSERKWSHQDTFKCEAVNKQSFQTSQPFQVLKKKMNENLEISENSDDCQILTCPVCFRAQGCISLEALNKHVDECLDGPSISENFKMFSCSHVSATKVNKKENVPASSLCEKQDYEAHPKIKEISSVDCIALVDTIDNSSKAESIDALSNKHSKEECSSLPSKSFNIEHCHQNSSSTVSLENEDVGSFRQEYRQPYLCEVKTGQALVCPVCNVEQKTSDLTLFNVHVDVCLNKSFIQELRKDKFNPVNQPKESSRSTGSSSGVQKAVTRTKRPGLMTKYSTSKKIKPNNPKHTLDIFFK

[2] = organism: Homo sapiens; assay: Inhibition of human DNA topoisomerase 2 at 100 uM
[3] = test system: Drosophila melanogaster; assay: Inhibition of fruit fly DNA polymerase epsilon at 100 uM
[4] = biological target: Inosine-5'-monophosphate dehydrogenase 2 (Mus musculus) (UniProt P24547); assay: Inhibition of mouse IMP dehydrogenase 2 at 100 uM
[5] = organism: Homo sapiens; assay: Inhibition of human DNA polymerase delta at 100 uM
[6] = biological target: Polynucleotide kinase (Enterobacteria phage T4) (UniProt P06855); assay: Inhibition of Enterobacteria phage T4 Polynucleotide kinase at 100 uM; details: Tequatrovirus T4
[7] = biological target: DNA topoisomerase 1 (Homo sapiens) (UniProt P11387); assay: Inhibition of human DNA topoisomerase 1 at 100 uM
[8] = test system: Oncorhynchus masou; assay: Inhibition of cherry salmon DNA polymerase delta at 100 uM
[9] = biological target: T2, DNA polymerase iota (Mus musculus) (UniProt Q6R3M4); assay: Inhibition of mouse DNA polymerase iota
T2 sequence (whole entry): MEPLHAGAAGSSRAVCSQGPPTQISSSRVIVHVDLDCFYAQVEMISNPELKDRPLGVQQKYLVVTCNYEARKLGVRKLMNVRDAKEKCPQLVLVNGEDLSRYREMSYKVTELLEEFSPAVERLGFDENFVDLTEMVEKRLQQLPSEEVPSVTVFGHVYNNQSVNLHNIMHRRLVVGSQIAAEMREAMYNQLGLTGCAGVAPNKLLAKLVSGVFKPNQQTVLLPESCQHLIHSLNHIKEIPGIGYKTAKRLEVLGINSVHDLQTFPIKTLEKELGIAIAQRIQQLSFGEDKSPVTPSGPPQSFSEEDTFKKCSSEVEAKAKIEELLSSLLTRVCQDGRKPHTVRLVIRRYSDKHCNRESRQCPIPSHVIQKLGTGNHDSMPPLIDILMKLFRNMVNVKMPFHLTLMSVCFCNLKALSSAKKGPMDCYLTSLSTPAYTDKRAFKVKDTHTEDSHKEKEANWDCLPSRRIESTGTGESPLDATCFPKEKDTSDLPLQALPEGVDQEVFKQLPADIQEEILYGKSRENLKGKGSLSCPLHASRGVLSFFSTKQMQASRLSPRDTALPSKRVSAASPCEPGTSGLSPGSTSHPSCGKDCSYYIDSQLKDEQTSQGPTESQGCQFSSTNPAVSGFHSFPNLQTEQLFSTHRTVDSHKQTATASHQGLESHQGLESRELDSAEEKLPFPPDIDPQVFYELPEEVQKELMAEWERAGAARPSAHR

[10] = biological target: T3, DNA polymerase eta (Homo sapiens) (UniProt Q9Y253); assay: Inhibition of human DNA polymerase eta
T3 sequence (whole entry): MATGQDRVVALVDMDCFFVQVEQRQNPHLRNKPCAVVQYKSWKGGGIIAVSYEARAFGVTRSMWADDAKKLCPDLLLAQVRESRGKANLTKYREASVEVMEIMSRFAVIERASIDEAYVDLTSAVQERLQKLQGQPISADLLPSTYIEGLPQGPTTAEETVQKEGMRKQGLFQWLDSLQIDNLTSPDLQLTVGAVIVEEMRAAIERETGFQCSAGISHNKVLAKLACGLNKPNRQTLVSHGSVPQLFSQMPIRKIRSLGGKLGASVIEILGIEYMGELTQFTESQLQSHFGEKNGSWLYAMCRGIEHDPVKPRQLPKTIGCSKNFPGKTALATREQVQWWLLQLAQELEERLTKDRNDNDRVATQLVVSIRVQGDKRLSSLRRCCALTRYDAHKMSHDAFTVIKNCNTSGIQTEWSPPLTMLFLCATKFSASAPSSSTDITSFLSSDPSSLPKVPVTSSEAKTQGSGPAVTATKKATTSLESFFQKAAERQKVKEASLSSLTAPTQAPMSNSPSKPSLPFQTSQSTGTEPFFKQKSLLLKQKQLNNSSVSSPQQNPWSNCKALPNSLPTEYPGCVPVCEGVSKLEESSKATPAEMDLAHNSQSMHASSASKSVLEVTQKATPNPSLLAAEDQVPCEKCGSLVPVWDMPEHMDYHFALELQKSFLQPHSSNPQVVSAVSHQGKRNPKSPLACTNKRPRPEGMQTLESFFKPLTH

[11] = organism: Homo sapiens; assay: Inhibition of human DNA polymerase epsilon at 100 uM
[12] = biological target: DNA nucleotidylexotransferase (Bos taurus) (UniProt P06526); assay: Inhibition of calf terminal deoxynucleotidyltransferase at 100 uM
[13] = test system: Escherichia phage T7; assay: Inhibition of Enterobacteria phage T7 RNA polymerase at 100 uM
[14] = biological target: T3, DNA polymerase eta (Homo sapiens); assay: Inhibition of human DNA polymerase eta at 100 uM
[15] = organism: Homo sapiens; assay: Inhibition of human DNA polymerase gamma at 100 uM
[16] = biological target: DNA polymerase beta (Rattus norvegicus) (UniProt P06766); assay: Inhibition of rat DNA polymerase beta at 100 uM
[17] = biological target: Human immunodeficiency virus type 1 reverse transcriptase (Human immunodeficiency virus 1) (UniProt Q72547); assay: Inhibition of HIV-1 reverse transcriptase at 100 uM
[18] = biological target: Telomerase reverse transcriptase (Homo sapiens) (UniProt O14746); assay: Inhibition of human telomerase at 100 uM
[19] = biological target: T2, DNA polymerase iota (Mus musculus); assay: Inhibition of mouse DNA polymerase iota at 100 uM
[20] = biological target: DNA-directed DNA polymerase (Enterobacteria phage T4) (UniProt P04415); assay: Inhibition of Enterobacteria phage T4 DNA polymerase at 100 uM; details: Tequatrovirus T4
[21] = test system: Drosophila melanogaster; assay: Inhibition of fruit fly DNA polymerase alpha at 100 uM
[22] = test system: Escherichia coli; assay: Inhibition of Escherichia coli DNA polymerase 1 Klenow fragment at 100 uM
[23] = biological target: DNA polymerase lambda (Homo sapiens) (UniProt Q9UGP5); assay: Inhibition of human DNA polymerase lambda at 100 uM
[24] = test system: Drosophila melanogaster; assay: Inhibition of fruit fly DNA polymerase delta at 100 uM
[25] = biological target: T1, DNA polymerase kappa (Homo sapiens); assay: Inhibition of human DNA polymerase kappa at 100 uM
[26] = test system: Brassica oleracea var. botrytis; assay: Inhibition of cauliflower DNA polymerase alpha at 100 uM
[27] = organism: Bos taurus; assay: Inhibition of calf primase of DNA polymerase alpha at 100 uM
[28] = organism: Bos taurus; assay: Inhibition of calf DNA polymerase alpha at 100 uM
[29] = biological target: Deoxyribonuclease-1 (Bos taurus) (UniProt P00639); assay: Inhibition of bovine deoxyribonuclease 1 at 100 uM
[30] = test system: Thermus aquaticus; assay: Inhibition of Taq DNA polymerase at 100 uM
[31] = test system: Oryza sativa; assay: Inhibition of rice DNA polymerase lambda at 100 uM

Sequence of DNA nucleotidylexotransferase (Bos taurus) (P06526 whole entry): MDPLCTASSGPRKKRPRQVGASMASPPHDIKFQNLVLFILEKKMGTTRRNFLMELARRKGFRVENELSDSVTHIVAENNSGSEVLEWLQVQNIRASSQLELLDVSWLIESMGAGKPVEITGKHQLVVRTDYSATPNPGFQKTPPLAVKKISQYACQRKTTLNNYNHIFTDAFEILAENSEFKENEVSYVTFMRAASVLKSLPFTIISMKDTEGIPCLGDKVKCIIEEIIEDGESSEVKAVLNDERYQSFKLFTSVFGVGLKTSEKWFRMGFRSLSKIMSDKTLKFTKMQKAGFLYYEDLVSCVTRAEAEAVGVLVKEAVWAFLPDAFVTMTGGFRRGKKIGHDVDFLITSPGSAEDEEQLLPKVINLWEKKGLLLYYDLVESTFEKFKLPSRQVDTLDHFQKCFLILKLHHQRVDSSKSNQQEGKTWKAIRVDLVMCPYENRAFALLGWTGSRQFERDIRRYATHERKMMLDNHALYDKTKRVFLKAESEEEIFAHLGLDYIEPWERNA
Sequence of DNA-directed DNA polymerase (Enterobacteria phage T4) (P04415 whole entry): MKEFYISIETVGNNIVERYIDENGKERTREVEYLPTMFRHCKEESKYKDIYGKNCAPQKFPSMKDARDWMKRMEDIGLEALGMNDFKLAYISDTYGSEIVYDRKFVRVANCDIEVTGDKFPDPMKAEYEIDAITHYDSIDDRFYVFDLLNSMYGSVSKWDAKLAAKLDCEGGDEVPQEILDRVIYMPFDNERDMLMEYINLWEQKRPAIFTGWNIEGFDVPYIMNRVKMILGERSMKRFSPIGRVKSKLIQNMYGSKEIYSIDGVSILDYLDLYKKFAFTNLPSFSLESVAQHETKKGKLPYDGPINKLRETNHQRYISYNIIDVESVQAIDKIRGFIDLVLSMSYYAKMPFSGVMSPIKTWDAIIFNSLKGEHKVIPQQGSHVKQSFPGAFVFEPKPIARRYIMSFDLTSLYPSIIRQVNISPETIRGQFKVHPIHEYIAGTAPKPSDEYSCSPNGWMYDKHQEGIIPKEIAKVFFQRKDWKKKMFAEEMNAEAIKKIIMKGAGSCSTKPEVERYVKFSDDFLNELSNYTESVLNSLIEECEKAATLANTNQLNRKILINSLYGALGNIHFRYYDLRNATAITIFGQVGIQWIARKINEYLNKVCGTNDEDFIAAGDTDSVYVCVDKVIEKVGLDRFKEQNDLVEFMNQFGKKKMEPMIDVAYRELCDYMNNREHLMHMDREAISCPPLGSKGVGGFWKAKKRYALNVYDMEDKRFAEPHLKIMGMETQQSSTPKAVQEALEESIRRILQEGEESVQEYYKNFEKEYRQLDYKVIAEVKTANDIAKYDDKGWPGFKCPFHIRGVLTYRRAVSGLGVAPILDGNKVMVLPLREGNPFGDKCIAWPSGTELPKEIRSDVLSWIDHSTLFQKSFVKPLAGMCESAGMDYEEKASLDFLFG
Sequence of Telomerase reverse transcriptase (Homo sapiens) (O14746 whole entry): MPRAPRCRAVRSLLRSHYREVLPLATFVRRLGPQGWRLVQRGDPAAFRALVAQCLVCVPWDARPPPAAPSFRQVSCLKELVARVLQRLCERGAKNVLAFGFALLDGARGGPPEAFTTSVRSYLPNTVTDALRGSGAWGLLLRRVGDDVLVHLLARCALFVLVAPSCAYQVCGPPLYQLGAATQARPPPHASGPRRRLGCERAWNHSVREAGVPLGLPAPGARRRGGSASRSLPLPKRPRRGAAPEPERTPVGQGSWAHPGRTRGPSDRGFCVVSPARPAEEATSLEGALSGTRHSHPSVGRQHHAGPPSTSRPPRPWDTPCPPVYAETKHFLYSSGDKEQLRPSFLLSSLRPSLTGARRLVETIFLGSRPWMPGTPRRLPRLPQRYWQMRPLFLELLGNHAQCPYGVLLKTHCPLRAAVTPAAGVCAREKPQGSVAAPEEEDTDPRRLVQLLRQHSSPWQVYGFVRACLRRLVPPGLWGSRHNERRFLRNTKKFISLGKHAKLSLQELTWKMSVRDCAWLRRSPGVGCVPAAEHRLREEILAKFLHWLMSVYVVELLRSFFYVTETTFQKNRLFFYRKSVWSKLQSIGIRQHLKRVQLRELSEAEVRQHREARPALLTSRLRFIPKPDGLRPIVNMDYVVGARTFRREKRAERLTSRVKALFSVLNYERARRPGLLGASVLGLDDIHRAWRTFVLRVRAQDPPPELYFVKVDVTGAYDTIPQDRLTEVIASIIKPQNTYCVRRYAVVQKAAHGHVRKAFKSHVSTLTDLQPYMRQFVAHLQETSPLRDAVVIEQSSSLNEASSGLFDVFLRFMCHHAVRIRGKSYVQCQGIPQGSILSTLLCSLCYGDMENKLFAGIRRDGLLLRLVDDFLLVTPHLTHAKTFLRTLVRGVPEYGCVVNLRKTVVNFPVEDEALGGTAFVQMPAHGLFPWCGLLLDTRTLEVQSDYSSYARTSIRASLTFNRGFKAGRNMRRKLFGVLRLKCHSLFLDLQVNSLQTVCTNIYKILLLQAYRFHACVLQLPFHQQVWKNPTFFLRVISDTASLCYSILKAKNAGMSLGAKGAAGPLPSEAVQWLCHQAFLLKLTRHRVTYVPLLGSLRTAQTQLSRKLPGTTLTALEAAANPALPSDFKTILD
Sequence of Deoxyribonuclease-1 (Bos taurus) (P00639 whole entry): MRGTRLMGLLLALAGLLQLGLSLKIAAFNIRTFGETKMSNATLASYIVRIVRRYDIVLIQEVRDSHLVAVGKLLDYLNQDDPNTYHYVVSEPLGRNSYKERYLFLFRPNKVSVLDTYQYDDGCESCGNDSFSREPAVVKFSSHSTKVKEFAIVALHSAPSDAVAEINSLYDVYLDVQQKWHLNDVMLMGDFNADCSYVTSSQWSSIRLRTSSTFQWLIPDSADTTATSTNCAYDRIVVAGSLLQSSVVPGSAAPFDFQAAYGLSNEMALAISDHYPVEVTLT
Sequence of Polynucleotide kinase (Enterobacteria phage T4) (P06855 whole entry): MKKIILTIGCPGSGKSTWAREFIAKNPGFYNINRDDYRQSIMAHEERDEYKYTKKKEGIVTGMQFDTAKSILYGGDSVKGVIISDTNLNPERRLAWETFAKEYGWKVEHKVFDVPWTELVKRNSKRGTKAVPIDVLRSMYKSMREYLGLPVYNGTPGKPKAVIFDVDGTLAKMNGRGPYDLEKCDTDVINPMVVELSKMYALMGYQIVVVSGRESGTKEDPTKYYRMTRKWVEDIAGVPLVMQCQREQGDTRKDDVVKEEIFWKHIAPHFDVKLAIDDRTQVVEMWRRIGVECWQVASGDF
Sequence of DNA topoisomerase 1 (Homo sapiens) (P11387 whole entry): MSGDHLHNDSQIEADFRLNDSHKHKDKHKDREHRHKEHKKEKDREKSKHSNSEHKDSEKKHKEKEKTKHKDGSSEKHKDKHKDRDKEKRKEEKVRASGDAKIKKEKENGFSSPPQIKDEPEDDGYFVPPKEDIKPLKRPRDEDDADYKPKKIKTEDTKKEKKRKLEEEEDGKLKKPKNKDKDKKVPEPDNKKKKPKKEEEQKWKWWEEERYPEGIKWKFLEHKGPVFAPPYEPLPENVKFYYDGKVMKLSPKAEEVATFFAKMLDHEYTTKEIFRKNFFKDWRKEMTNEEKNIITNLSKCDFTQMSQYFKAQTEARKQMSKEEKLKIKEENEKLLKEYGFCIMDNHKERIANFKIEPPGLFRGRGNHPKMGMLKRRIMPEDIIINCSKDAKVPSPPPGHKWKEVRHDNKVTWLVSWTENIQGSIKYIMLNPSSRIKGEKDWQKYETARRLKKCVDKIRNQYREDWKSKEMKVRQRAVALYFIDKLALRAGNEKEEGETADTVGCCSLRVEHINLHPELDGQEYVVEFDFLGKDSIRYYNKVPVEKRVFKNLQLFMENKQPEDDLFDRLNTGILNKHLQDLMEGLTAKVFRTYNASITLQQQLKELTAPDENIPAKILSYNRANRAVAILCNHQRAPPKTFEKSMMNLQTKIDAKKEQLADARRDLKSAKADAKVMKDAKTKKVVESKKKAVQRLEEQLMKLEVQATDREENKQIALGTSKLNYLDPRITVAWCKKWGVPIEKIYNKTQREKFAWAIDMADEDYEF
Sequence of Inosine-5'-monophosphate dehydrogenase 2 (Mus musculus) (P24547 whole entry, looked up): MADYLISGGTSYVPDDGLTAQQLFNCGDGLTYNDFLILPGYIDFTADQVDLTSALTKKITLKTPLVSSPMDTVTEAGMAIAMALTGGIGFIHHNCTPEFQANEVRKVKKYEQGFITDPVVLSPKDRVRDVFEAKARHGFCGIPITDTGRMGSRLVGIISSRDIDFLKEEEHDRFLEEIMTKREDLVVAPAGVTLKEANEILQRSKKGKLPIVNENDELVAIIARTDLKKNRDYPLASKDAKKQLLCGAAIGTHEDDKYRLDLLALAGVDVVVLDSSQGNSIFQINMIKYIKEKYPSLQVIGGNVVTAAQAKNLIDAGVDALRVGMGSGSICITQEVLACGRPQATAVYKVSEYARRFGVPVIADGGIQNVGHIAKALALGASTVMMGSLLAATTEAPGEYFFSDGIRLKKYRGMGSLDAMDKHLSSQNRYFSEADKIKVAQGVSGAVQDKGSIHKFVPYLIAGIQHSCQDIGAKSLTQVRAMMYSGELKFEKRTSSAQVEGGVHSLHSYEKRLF
Sequence of DNA polymerase lambda (Homo sapiens) (Q9UGP5 whole entry): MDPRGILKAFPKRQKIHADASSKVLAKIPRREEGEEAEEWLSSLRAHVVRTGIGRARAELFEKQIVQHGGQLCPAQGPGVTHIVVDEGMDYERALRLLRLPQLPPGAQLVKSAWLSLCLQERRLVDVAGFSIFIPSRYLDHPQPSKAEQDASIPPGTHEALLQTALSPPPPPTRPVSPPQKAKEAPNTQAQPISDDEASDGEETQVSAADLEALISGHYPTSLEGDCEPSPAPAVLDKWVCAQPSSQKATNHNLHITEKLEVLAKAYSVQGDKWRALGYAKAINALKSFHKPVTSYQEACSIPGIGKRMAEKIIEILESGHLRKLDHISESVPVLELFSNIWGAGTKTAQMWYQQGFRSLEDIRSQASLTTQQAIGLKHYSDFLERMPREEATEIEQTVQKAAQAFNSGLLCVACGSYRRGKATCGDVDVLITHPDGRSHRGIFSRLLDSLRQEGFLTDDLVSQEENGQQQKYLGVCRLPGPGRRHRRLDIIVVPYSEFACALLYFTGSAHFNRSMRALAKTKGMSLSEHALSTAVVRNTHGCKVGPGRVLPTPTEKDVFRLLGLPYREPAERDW

| Activity [1] | Activity [2] | Activity [3] | Activity [4] | Activity [5] | Activity [6] | Activity [7] | Activity [8] | Activity [9] | Activity [10] | Activity [11] | Activity [12] | Activity [13] | Activity [14] | Activity [15] | Activity [16] | Activity [17] | Activity [18] | Activity [19] | Activity [20] | SMILES | further results |
| --- | --- | --- | --- | --- | --- | --- | --- | --- | --- | --- | --- | --- | --- | --- | --- | --- | --- | --- | --- | --- | --- |
| Dose-dependent effect | inactive | inactive | inactive | inactive | inactive | inactive | inactive | Dose-dependent effect | Dose-dependent effect | inactive | inactive | inactive | Active | inactive | inactive | inactive | inactive | Active | inactive | COC1=C(C(=O)CC(C)O)C(=O)C(C)(/C=C/C=C/C(C)O)O1 (stereo unspecified) | Activity [21]: inactive; Activity [22]: inactive; Activity [23]: inactive; Activity [24]: inactive; Activity [25]: Active; Activity [26]: inactive; Activity [27]: inactive; Activity [28]: inactive; Activity [29]: inactive; Activity [30]: inactive |
| Dose-dependent effect | inactive | inactive | inactive | inactive | inactive | inactive | inactive | Dose-dependent effect | Dose-dependent effect | inactive | inactive | inactive | Active | inactive | inactive | inactive | inactive | Active | inactive | C/C=C/C(=O)C1=C(OC)OC(C)(/C=C/C=C/C(C)O)C1=O (stereo unspecified) | Activity [31]: inactive; Activity [21]: inactive; Activity [22]: inactive; Activity [23]: inactive; Activity [24]: inactive; Activity [25]: Active; Activity [26]: inactive; Activity [27]: inactive; Activity [28]: inactive; Activity [29]: inactive; Activity [30]: inactive |
